Assay results: PubChem BioAssay (NCI)
Values joined by “and” are separate entries in the source; they are usually repeats but may differ in a detail not shown here. Equal values may be shown once.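 Cultured in 96-well plates, cells were exposed to test compound for 48 hours across five concentrations. GI50 is the concentration that inhibits growth by half. Definition used: TGI = concentration required for complete inhibition of growth.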

Experiments:
Assay in all cases: NCI tumour cell line growth inhibition, 48 h
[1] = system: 786-0 renal
[2] = system: A498 renal
[3] = system: A549 NSCLC
[4] = system: ACHN renal
[5] = system: BT-549 breast
[6] = system: CAKI-1 renal
[7] = system: CCRF-CEM leukemia
[8] = system: COLO 205 colon
[9] = system: DU-145 prostate
[10] = system: EKVX NSCLC
[11] = system: HCC-2998 colon
[12] = system: HCT-116 colon
[13] = system: HCT-15 colon
[14] = system: HOP-62 NSCLC
[15] = system: HOP-92 NSCLC
[16] = system: HT29 colon
[17] = system: IGROV1 ovarian
[18] = system: K-562 leukemia
[19] = system: KM12 colon
[20] = system: LOX IMVI melanoma
[21] = system: M14 melanoma
[22] = system: MALME-3M melanoma
[23] = system: MCF7 breast
[24] = system: MDA-MB-231 breast
[25] = system: MDA-MB-435
[26] = system: MDA-N
[27] = system: MOLT-4 leukemia
[28] = system: NCI-H226 lung
[29] = system: NCI-H23 lung
[30] = system: NCI-H460 lung
[31] = system: NCI-H522 lung
[32] = system: NCI/ADR-RES ovarian
[33] = system: OVCAR-3 ovarian
[34] = system: OVCAR-4 ovarian
[35] = system: OVCAR-5 ovarian
[36] = system: OVCAR-8 ovarian
[37] = system: PC-3 prostate
[38] = system: RPMI-8226 leukemia
[39] = system: RXF 393 renal
[40] = system: SF-268 CNS
[41] = system: SF-295 CNS
[42] = system: SF-539 CNS
[43] = system: SK-MEL-2 melanoma
[44] = system: SK-MEL-28 melanoma
[45] = system: SK-MEL-5 melanoma
[46] = system: SK-OV-3 ovarian
[47] = system: SN12C renal
[48] = system: SNB-19 CNS
[49] = system: SR leukemia
[50] = system: SW-620 colon
[51] = system: T-47D breast
[52] = system: TK-10 renal
[53] = system: U251 CNS
[54] = system: UACC-257 melanoma
[55] = system: UACC-62 melanoma
[56] = system: UO-31 renal
[57] = system: HL-60(TB) leukemia
[58] = system: HS 578T breast
[59] = system: SNB-75 CNS

NCCCCc1cc(O)c2c(c1O)C(=O)c1ccccc1C2=O
TGI [1]: 19.6 µM | TGI [2]: 37.2 µM | TGI [3]: 16.9 µM | TGI [4]: 25.4 µM | TGI [5]: 49.9 µM | TGI [6]: 27.2 µM | TGI [7]: 14.4 µM | TGI [8]: 10.4 µM | TGI [9]: 26.8 µM | TGI [10]: 33.5 µM | TGI [11]: 28 µM | TGI [12]: 18.1 µM | TGI [13]: 25.5 µM | TGI [14]: 21.3 µM | TGI [15]: 31.1 µM | TGI [16]: 16.7 µM | TGI [17]: 22.2 µM | TGI [18]: 17.3 µM | TGI [19]: 24.2 µM | TGI [20]: 21.2 µM | TGI [21]: 33.6 µM | TGI [22]: 30 µM | TGI [23]: 27.4 µM | TGI [24]: 24.2 µM | TGI [25]: 43.6 µM | TGI [26]: 28.6 µM | TGI [27]: 10.1 µM | TGI [28]: 19.2 µM | TGI [29]: 28.4 µM | TGI [30]: 26.6 µM | TGI [31]: 23.7 µM | TGI [32]: 30.5 µM | TGI [33]: 19.4 µM | TGI [34]: 35 µM | TGI [35]: 28.5 µM | TGI [36]: 16.3 µM | TGI [37]: 22.8 µM | TGI [38]: 29.2 µM | TGI [39]: 27.9 µM | TGI [40]: 29.9 µM | TGI [41]: 28.6 µM | TGI [42]: 21.8 µM | TGI [43]: 32.4 µM | TGI [44]: 33.6 µM | TGI [45]: 28.3 µM | TGI [46]: 29.1 µM | TGI [47]: 23 µM | TGI [48]: 29.2 µM | TGI [49]: 19.8 µM | TGI [50]: > 44.2 µM | TGI [51]: 43.3 µM | TGI [52]: 34 µM | TGI [53]: > 43 µM | TGI [54]: 33.4 µM | TGI [55]: 32.6 µM | TGI [56]: 20.3 µM

O=c1cc(-c2ccccc2F)[nH]c2ccc(N3CCCC3)cc12
GI50 [1]: < 0.001 µM | TGI [1]: > 100 µM | GI50 [2]: 7.32 µM | TGI [2]: > 100 µM | GI50 [3]: < 0.001 µM | TGI [3]: > 100 µM | TGI [4]: > 100 µM | TGI [5]: > 100 µM | GI50 [7]: < 0.001 µM | TGI [7]: > 100 µM | GI50 [8]: < 0.001 µM | GI50 [9]: < 0.001 µM | GI50 [10]: > 100 µM | GI50 [11]: 0.0204 µM | TGI [11]: 0.455 µM and 0.0546 µM | GI50 [13]: < 0.001 µM | GI50 [57]: < 0.001 µM | GI50 [14]: < 0.001 µM | TGI [14]: > 100 µM | TGI [15]: > 100 µM | GI50 [58]: < 0.001 µM | GI50 [16]: < 0.001 µM | GI50 [17]: < 0.001 µM | GI50 [18]: < 0.001 µM | TGI [18]: > 100 µM | GI50 [19]: < 0.001 µM | GI50 [20]: < 0.001 µM | TGI [20]: > 100 µM | GI50 [21]: < 0.001 µM | TGI [21]: > 100 µM | TGI [22]: > 100 µM | GI50 [23]: 0.488 µM | TGI [23]: > 100 µM | GI50 [24]: > 100 µM | TGI [24]: > 100 µM | GI50 [26]: < 0.001 µM | GI50 [27]: < 0.001 µM | TGI [27]: > 100 µM | GI50 [28]: < 0.001 µM | TGI [28]: 0.0215 µM | GI50 [29]: 0.199 µM | GI50 [30]: < 0.001 µM | GI50 [31]: < 0.001 µM | GI50 [32]: < 0.001 µM | TGI [34]: 55.3 µM | GI50 [35]: 2.53 µM | TGI [35]: > 100 µM | GI50 [36]: < 0.001 µM | TGI [37]: > 100 µM | GI50 [38]: < 0.001 µM | GI50 [39]: < 0.001 µM | TGI [39]: > 100 µM | GI50 [40]: < 0.001 µM | TGI [42]: 0.0134 µM | TGI [43]: > 100 µM | GI50 [44]: 82.3 µM | TGI [44]: > 100 µM | GI50 [45]: < 0.001 µM | GI50 [46]: < 0.001 µM | GI50 [47]: < 0.001 µM | TGI [47]: > 100 µM | GI50 [48]: < 0.001 µM | TGI [48]: 0.0725 µM | TGI [59]: > 100 µM | GI50 [49]: < 0.001 µM | TGI [50]: > 100 µM | GI50 [51]: > 100 µM | TGI [51]: > 100 µM | GI50 [52]: 74.9 µM | TGI [52]: > 100 µM | GI50 [53]: < 0.001 µM | TGI [54]: > 100 µM | GI50 [55]: < 0.001 µM | TGI [55]: > 100 µM
